Key:
[1] = Acute toxicity in mice (50% lethal dose, i.v. injection 2 consecutive days); type: in vivo
[2] = tested on: leukemia L1210; assay: Antitumoral activity in DBA2 mice grafted subcutaneously with leukemia L1210 cells; type: in vivo
Experimental: The tests were made with mice weighing 20 to 22 g grafted subcutaneously with 10^6 cells of leukemia L1210 and treated with daily doses between 5 and 60 mg/kg i.v.
At equitoxic dose, doxorubicine induces 78% ILS, 16% of surviving animals at long term and an average tumoral volume of 24 mm^3 on day 12.

[3] = DBA2 mice 20-22 g, 10^6 L1210 cells s.c., i.v. days 1 and 2, 48 mg/kg a day
[4] = DBA2 mice, L1210 s.c., equitoxic dose

SMILES | LD50 ([1]; mouse, in vivo, iv) [mg/kg] | LD50 relative to doxorubicine (times more than for doxorubicine) ([1]; versus doxorubicine) [times] | increase in life span (ILS) [2, 3] [%] | surviving animals at long term [2, 3] [%] | average tumoral volume on day 12 [2, 3] [mm^3] | increase in life span (ILS) [2, 4] [%] | surviving animals at long term [2, 4] [%] | average tumoral volume on day 12 [2, 4] [mm^3]
COc1cccc2c1C(=O)c1c(O)c3c(c(O)c1C2=O)C[C@@](O)(C(=O)CO)C[C@@H]3O[C@H]1C[C@H](NC(=O)[C@@H](N)CC(C)C)[C@H](O)[C@H](C)O1 [N-(L-leucyl)doxorubicine] | ~67 | 6 | 131 | 33 | 0.01 |  |  | 
COc1cccc2c1C(=O)c1c(O)c3c(c(O)c1C2=O)C[C@@](O)(C(=O)CO)C[C@@H]3O[C@H]1C[C@H](N)[C@H](O)[C@H](C)O1 [doxorubicine] |  |  |  |  |  | 78 | 16 | 24
